In the experiment the test system is P388 leukemia ip, CD2F1 mice, survival T/C. Briefly: NCI In Vivo Anticancer Drug Screen. Data for tumor model P388 Leukemia (intraperitoneal) in CD2F1 (CDF1) mice. Conditions: endpoint: median survival time, higher = longer survival. In short, it runs like this:
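Mice carrying the transplanted tumor received test compound or vehicle. Survival was recorded in each group, and the value is the treated-group measurement divided by that of the vehicle-treated control group.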

The mark [1] stands for this setting: dose: 50.0 mg/kg/injection, schedule: Q01DX009 (ip), vehicle: saline with Tween-80.
[2] abbreviates: dose: 100.0 mg/kg/injection, schedule: Q01DX009 (ip), vehicle: saline with Tween-80.
Where [3] appears, read: dose: 200.0 mg/kg/injection, schedule: Q01DX009 (ip), vehicle: saline with Tween-80.
Setting [4] is: dose: 60.0 mg/kg/injection, schedule: Q01DX005 (ip), vehicle: saline with Tween-80.
The mark [5] stands for this setting: dose: 120.0 mg/kg/injection, schedule: Q01DX005 (ip), vehicle: saline with Tween-80.
Where [6] appears, read: dose: 240.0 mg/kg/injection, schedule: Q01DX005 (ip), vehicle: saline with Tween-80.
The mark [7] stands for this setting: dose: 50.0 mg/kg/injection, schedule: Q01DX005 (ip), vehicle: saline with Tween-80.
Setting [8] is: dose: 100.0 mg/kg/injection, schedule: Q01DX005 (ip), vehicle: saline with Tween-80.
[9] abbreviates: dose: 200.0 mg/kg/injection, schedule: Q01DX005 (ip), vehicle: saline with Tween-80.
[10] abbreviates: dose: 100.0 mg/kg/injection, schedule: Q04DX002 (ip), vehicle: saline with Tween-80.
Setting [11] is: dose: 200.0 mg/kg/injection, schedule: Q04DX002 (ip), vehicle: saline with Tween-80.
Where [12] appears, read: dose: 12.5 mg/kg/injection, schedule: Q01DX009 (ip), vehicle: saline with Tween-80.

Values joined by “and” are separate entries in the source; they are usually repeats but may differ in a detail not shown here. Equal values may be shown once. Inconclusive results and toxic doses are left out.

Turning to `COc1ccc(CC2C(=O)NC(C)C(=O)N(C)C3Cc4ccc(cc4)Oc4cc(ccc4O)CC(C(=O)NC(C)C(=O)NC(C)C(=O)N2C)N(C)C3=O)cc1` (stereo not drawn), the T/C is, setting by setting: (dose: 0.19 mg/kg/injection, schedule: Q03HX024 (ip), vehicle: other) 156 % of control; (dose: 0.38 mg/kg/injection, schedule: Q03HX024 (ip), vehicle: other) 171 % of control; (dose: 0.45 mg/kg/injection, schedule: Q01DX005 (iv), vehicle: other) 108 % of control; (dose: 0.5 mg/kg/injection, schedule: Q01DX009 (ip), vehicle: other) 161 % of control; (dose: 0.75 mg/kg/injection, schedule: Q03HX024 (ip), vehicle: other) 167 % of control; (dose: 0.9 mg/kg/injection, schedule: Q01DX005 (ip), vehicle: other) 166 % of control. Besides, the T/C by setting is: (dose: 0.9 mg/kg/injection, schedule: Q01DX005 (iv), vehicle: other) 96 % of control; (dose: 1.0 mg/kg/injection, schedule: Q01DX009 (ip), vehicle: other) 172 % of control; (dose: 1.0 mg/kg/injection, schedule: Q01DX009 (ip), vehicle: saline with Tween-80) 163 % of control; (dose: 1.13 mg/kg/injection, schedule: Q01DX001 (iv), vehicle: other) 103 % of control; (dose: 1.13 mg/kg/injection, schedule: Q03HX008 (ip), vehicle: other) 162 % of control; (dose: 1.5 mg/kg/injection, schedule: Q04DX003 (ip), vehicle: other) 157 % of control. Also, the T/C (dose: 1.8 mg/kg/injection, schedule: Q01DX005 (ip), vehicle: other) is 173 % of control; the T/C (dose: 1.8 mg/kg/injection, schedule: Q01DX005 (iv), vehicle: other) is 99 % of control; the T/C (dose: 2.0 mg/kg/injection, schedule: Q01DX009 (ip), vehicle: other) is 192 % of control; the T/C (dose: 2.0 mg/kg/injection, schedule: Q01DX009 (ip), vehicle: saline with Tween-80) was 152 % of control and 159 % of control; the T/C (dose: 2.0 mg/kg/injection, schedule: Q01DX009 (oral), vehicle: other) is 105 % of control; the T/C (dose: 2.25 mg/kg/injection, schedule: Q01DX001 (iv), vehicle: other) was 105 % of control. Further, the T/C (dose: 3.0 mg/kg/injection, schedule: Q04DX003 (ip), vehicle: other) is 152 % of control; the T/C (dose: 3.6 mg/kg/injection, schedule: Q01DX005 (ip), vehicle: other) was 163 % of control; the T/C (dose: 3.6 mg/kg/injection, schedule: Q01DX005 (iv), vehicle: other) was 116 % of control; the T/C (dose: 4.0 mg/kg/injection, schedule: Q01DX009 (ip), vehicle: other) is 193 % of control; the T/C (dose: 4.0 mg/kg/injection, schedule: Q01DX009 (ip), vehicle: saline with Tween-80) is 174 % of control and 186 % of control; the T/C (dose: 4.0 mg/kg/injection, schedule: Q01DX009 (oral), vehicle: other) is 103 % of control. The T/C reads like this: (dose: 4.5 mg/kg/injection, schedule: Q01DX001 (iv), vehicle: other) 111 % of control; (dose: 6.0 mg/kg/injection, schedule: Q04DX003 (ip), vehicle: other) 163 % of control; (dose: 7.2 mg/kg/injection, schedule: Q01DX005 (ip), vehicle: other) 182 % of control; (dose: 7.2 mg/kg/injection, schedule: Q01DX005 (iv), vehicle: other) 153 % of control; (dose: 8.0 mg/kg/injection, schedule: Q01DX009 (ip), vehicle: other) 233 % of control; (dose: 8.0 mg/kg/injection, schedule: Q01DX009 (ip), vehicle: saline with Tween-80) 155 % of control. The T/C is 96 % of control (dose: 8.0 mg/kg/injection, schedule: Q01DX009 (oral), vehicle: other); 123 % of control (dose: 9.0 mg/kg/injection, schedule: Q01DX001 (iv), vehicle: other); 153 % of control (dose: 12.0 mg/kg/injection, schedule: Q04DX003 (ip), vehicle: other); 97 % of control (dose: 16.0 mg/kg/injection, schedule: Q01DX009 (oral), vehicle: other); 94 % of control (dose: 32.0 mg/kg/injection, schedule: Q01DX009 (oral), vehicle: other).

For the compound `CC(C)(C)CC(C)(C)c1ccc(OCc2ccc(Cl)c(Cl)c2)cc1`, the T/C under setting [1] is 100 % of control, the T/C under setting [2] was 100 % of control and the T/C under setting [3] is 91 % of control.

For `CC(C)c1ccccc1N1C(=O)CC(Sc2ccccc2N)C1=O` (stereo not drawn), the T/C was 107 % of control (dose: 12.5 mg/kg/injection, schedule: Q01DX005 (ip), vehicle: Klucel (hydroxypropylcellulose) (HPC)); 102 % of control (dose: 25.0 mg/kg/injection, schedule: Q01DX005 (ip), vehicle: Klucel (hydroxypropylcellulose) (HPC)); 105 % of control and 90 % of control (dose: 50.0 mg/kg/injection, schedule: Q01DX005 (ip), vehicle: Klucel (hydroxypropylcellulose) (HPC)); 90 % of control (dose: 200.0 mg/kg/injection, schedule: Q01DX005 (ip), vehicle: Klucel (hydroxypropylcellulose) (HPC)).

As to `N#CC(OC(OC(C#N)c1ccccc1)c1ccccc1)c1ccccc1` (stereo not drawn), the T/C was 98 % of control under setting [4], 94 % of control under setting [5] and 89 % of control under setting [6].

As for `COc1ccc(/C=C/C(C)=N/NC(N)=O)cc1`, the T/C runs as follows: under setting [7], 101 % of control; under setting [8], 94 % of control; under setting [9], 96 % of control.

Turning to `OCC1OC(Oc2ccc(Cl)cc2)C(O)C1O` (stereo not drawn), the T/C is, setting by setting: (dose: 50.0 mg/kg/injection, schedule: Q04DX002 (ip), vehicle: saline with Tween-80) 105 % of control; under setting [10], 98 % of control; under setting [11], 112 % of control.

Consider `CN(C)CC(CN(C)C)C(=O)c1ccc(Cl)cc1`, for which the T/C is, setting by setting: (dose: 6.25 mg/kg/injection, schedule: Q01DX005 (ip), vehicle: saline) 107 % of control and 95 % of control and 96 % of control; (dose: 12.5 mg/kg/injection, schedule: Q01DX005 (ip), vehicle: saline) 107 % of control and 115 % of control and 116 % of control; (dose: 25.0 mg/kg/injection, schedule: Q01DX005 (ip), vehicle: saline) 107 % of control and 118 % of control and 124 % of control; (dose: 50.0 mg/kg/injection, schedule: Q01DX005 (ip), vehicle: saline) 104 % of control and 113 % of control.

`COc1ccc2[nH]cc(C#N)c(=O)c2c1`: the T/C is 101 % of control under setting [7], 90 % of control under setting [8] and 92 % of control under setting [9].

Turning to `Cc1cc2c(cc1C)[n+](=O)c1c(n2[O-])CCC1`, the T/C by setting is: under setting [4], 100 % of control; under setting [5], 95 % of control.

Take `CC(C)(CO)NCC(O)CS(=O)(=O)O` (stereo not drawn): the T/C was 100 % of control (dose: 60.0 mg/kg/injection, schedule: Q01DX005 (ip), vehicle: saline); 100 % of control (dose: 120.0 mg/kg/injection, schedule: Q01DX005 (ip), vehicle: saline); 101 % of control (dose: 240.0 mg/kg/injection, schedule: Q01DX005 (ip), vehicle: saline).

`CC12CCC3(C)OCC(CO)(CO1)N23` (stereo not drawn): the T/C reads like this: under setting [1], 91 % of control; under setting [2], 90 % of control; under setting [3], 91 % of control.

Consider `Cc1ccccc1N=Nc1c(O)n(-c2ccc(Cl)cc2)c(=S)n(-c2ccc(Br)cc2)c1=O`, for which the T/C under setting [10] is 96 % of control; the T/C under setting [11] is 105 % of control; the T/C (dose: 400.0 mg/kg/injection, schedule: Q04DX002 (ip), vehicle: saline with Tween-80) was 91 % of control.

On to `OC1(c2ccccc2)CSC2=Nc3ccccc3C3CCN1N23` (stereo not drawn), for which the T/C reads like this: under setting [12], 108 % of control and 87 % of control; under setting [2], 122 % of control and 95 % of control; under setting [3], 99 % of control.

For `O=C1CCC(c2nc3ccccc3[nH]2)N1Cc1ccc(Cl)cc1` (stereo not drawn), the T/C reads like this: under setting [4], 108 % of control; under setting [5], 90 % of control; under setting [6], 86 % of control.

Regarding `Clc1ccc(C(c2ccc(Cl)cc2)C(Cl)(Cl)Cl)cc1`, the T/C reads like this: (dose: 1.56 mg/kg/injection, schedule: Q01DX009 (ip), vehicle: saline with Tween-80) 105 % of control; (dose: 3.12 mg/kg/injection, schedule: Q01DX009 (ip), vehicle: saline with Tween-80) 98 % of control; (dose: 6.25 mg/kg/injection, schedule: Q01DX009 (ip), vehicle: saline with Tween-80) 100 % of control; under setting [12], 98 % of control; under setting [1], 99 % of control.

For `COc1cc2c(OC)cc1CCC1=CC(=O)C=C(CC2)C1=O`, the T/C is, setting by setting: under setting [7], 99 % of control; under setting [8], 103 % of control; under setting [9], 92 % of control.

For the origin of these results see PubChem BioAssay AID330 (DTP/NCI, 2004).
